Measured values from patent US4963552A, “1-substitute-1,2-dihydro-4-((substituted)phenyl)imidazo-[1,5-a] pyrimidine-8-carbonitriles” (American Cyanamid Company, priority 1989, dated 1990).
Structures can show the parent of a compound that is named as a salt.

Legend:
[1] = system: spontaneously hypertensive rats of the Okamoto strain; test: Reduction of mean arterial blood pressure in spontaneously hypertensive rats; assay type: in vivo, rat; conditions: second identical dose at 24 h, measured at 28 h, male SHR, average MABP 160±1.5 mm of mercury
Protocol: These compounds were tested for hypotensive activity by the method of P. S. Chan and D. W. Poorvin, Clinical and Experimental Hypertension, 1 (6), 817-830 (1979). Male, 16 week old, spontaneously hypertensive rats of the Okamoto strain having an average mean arterial blood pressure of 160±1.5 mm of mercury are used in the test. One to three rats are used per test compound. The test compound is suspended in 2% pre-boiled starch at a concentration of 50 mg/ml, and a rat is dosed by gavage at a dose of 100 mg/kg of body weight or less, with 0.9% sodium chloride loading at a dose of 25 ml/kg of body weight. A second identical dose of the test compound, without sodium chloride loading, is given 24 hours later. At 28 hours after the initial dose the mean arterial blood pressure is measured by the method of Chan and Poorvin vide supra. The procedure is repeated in a second and third rat when necessary.

[2] = target: T1, [^3 H]-imipramine receptor (human platelet membranes) (Homo sapiens, UniProt P31645); test: Inhibition of [^3 H]-imipramine binding to human platelet membranes; conditions: 10 μm test compound, 90 minutes at 0° C., duplicate, more than 50% considered active; for inhibition at 10 µM: 1.5 h
T1 construct: Platelet membranes were obtained using the procedure described by Wennogle, L. P., et al; tissue New York Blood Center; host or cells: human platelets (washed, sonicated membranes)
Protocol: The activity of the compounds of this invention as antidepressant agents was verified in the following test which measures the ability of a test compound to inhibit [^3 H]-imipramine binding to human platelet membranes.
Platelet membranes were obtained using the procedure described by Wennogle, L. P., et al., Pharmac. Biochem Behav., 15, 975 (1981). Fresh human platelet concentrates(less than 48 hours old) were obtained from the New York Blood Center. These concentrates were prepared in a citrate-dextrose anticoagulant using standard techniques. Platelets were washed twice by centrifugation (2500 x G, 10 minutes) in 50 volumes of an antiprotease buffer containing 0.005M potassium chloride, 0.12M sodium chloride, 0.05M Tris pH 7.5, 0.025 Units/ml aprotinin, 0.5 μg/m pepstatin, […] bacitracin, 3 mM ethylenediaminetetraacetic acid and 1.0 mM ethylene glycol-bis(β-aminoethyl ether)-N,N'-tetraacetic acid. […] All procedures were conducted at 0° C. using plastic laboratory ware throughout the platelet membrane preparation. Platelets were resuspended in 20 volumes of buffer and sonicated 3 times using 10 second bursts of a Branson sonifier (cell disrupter 350) at setting 6 (standard 3/4 inch horn), keeping the sample on ice throughout the procedure. Platelet membranes were then washed twice at 18,000 x G for 20 minutes with 50 volumes of the antiprotease buffer and resuspended to 3.0 mg protein/ml using the Bradford protein analysis with bovine gamma globulin as standard. Membranes were used immediately or stored frozen in liquid nitrogen.
The displacement of [^3 H]-imipramine binding to human platelet membranes was performed essentially as described by Paul, S. M., et al , Life Sci., 26, 953 (1980) with the following modifications. Membranes (0.3 mg protein) were suspended in antiprotease buffer with both […] [^3 H]-imipramine (New England Nuclear) and displacing drug or buffer in a total volume of 250 μl in glass test tubes. Samples were incubated for 90 minutes at 0° C., then diluted to 5 ml in […] sodium chloride, 0.005M potassium chloride, 0.05 Tris pH 7.5 (wash buffer) and immediately filtered through GF/B Whatman Filters and washed twice with 5 ml of wash buffer. Filters were counted in a liquid scintillation counter after addition of Beckman Hp Scintillant.
Non-specific binding of [^3 H]-imipramine was defined as that fraction (generally 35%) of radioactivity that was not displaced by 10 μm desmethylimipramine. Specific binding was determined by subtraction of this non-specific level from values for total [^3 H]-imipramine binding which were measured by incubating [^3 H]-imipramine in the absence of displacing drug. Compounds were tested in duplicate test tubes at a concentration of 10 μm. Compounds which inhibited binding by more than 50% were considered to be active.

T1 sequence (P31645 whole entry): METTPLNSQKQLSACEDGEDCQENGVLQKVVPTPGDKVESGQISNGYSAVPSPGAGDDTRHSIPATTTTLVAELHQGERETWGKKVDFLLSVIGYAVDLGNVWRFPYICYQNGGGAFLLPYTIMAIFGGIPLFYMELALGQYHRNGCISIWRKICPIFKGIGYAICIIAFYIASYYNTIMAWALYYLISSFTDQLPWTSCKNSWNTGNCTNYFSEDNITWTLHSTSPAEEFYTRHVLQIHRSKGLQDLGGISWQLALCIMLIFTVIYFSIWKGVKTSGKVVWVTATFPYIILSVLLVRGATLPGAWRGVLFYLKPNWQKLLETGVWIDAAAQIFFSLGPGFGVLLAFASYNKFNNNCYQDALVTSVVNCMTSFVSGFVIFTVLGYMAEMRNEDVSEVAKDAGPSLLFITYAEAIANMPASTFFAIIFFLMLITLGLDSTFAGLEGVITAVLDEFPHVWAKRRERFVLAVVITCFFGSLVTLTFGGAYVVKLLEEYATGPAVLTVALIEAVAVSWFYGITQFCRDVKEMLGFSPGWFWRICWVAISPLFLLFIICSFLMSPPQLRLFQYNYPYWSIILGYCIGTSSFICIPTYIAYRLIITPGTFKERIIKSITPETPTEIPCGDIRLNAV

SMILES	MABP/mm Hg (mean arterial blood pressure) ([1]; 100 mg/kg by gavage)	inhibition at 10 µM [2]	also measured
COc1ccc(Cl)cc1NCC(=O)N1CC=C(c2cccc(C(F)(F)F)c2)n2cnc(C#N)c21 [1-[[(5-Chloro-2-methoxyphenyl)amino]acetyl]-1,2-dihydro-4-[3-(trifluoromethyl)phenyl]imidazo[1,5-a]pyrimidine-8-carbonitrile]	135 mm Hg		
COc1cccc(CN2CCN(CC(=O)N3CC=C(c4cccc(C(F)(F)F)c4)n4cnc(C#N)c43)CC2)c1 [Example 5, 1,2-Dihydro-1-[[4-[(3-methoxyphenyl)methyl]-1-piperazinyl]acetyl]-4-[3-(trifluoromethyl)phenyl]imidazo[1,5-a]pyrimidine-8-carbonitrile]			% Inhibition of [^3 H]-imipramine binding [2]: 81%
COc1cccc(CN2CCN(CC(=O)N3CC=C(c4cccc(C(F)(F)F)c4)n4cnc(C#N)c43)CC2)c1 [Example 6, 1,2-Dihydro-1-[[4-[(3-methoxyphenyl)methyl]-1-piperazinyl]acetyl]-4-[3-trifluoromethyl)phenyl]imidazo[1,5-a]pyrimidine-8-carbonitrile, dihydrochloride]		75%	
N#Cc1ncn2c1N(C(=O)CN1CCN(CCCOc3ccccc3)CC1)CC=C2c1cccc(C(F)(F)F)c1 [Example 9, 1,2-Dihydro-1-[[4-(3-phenoxypropyl)-1-piperazinyl]acetyl]-4-[3-(trifluoromethyl)phenyl]imidazo[1,5-a]pyrimidine-8-carbonitrile]	130 mm Hg	50%	
N#Cc1ncn2c1N(C(=O)CN1CCN(C(c3ccccc3)c3ccc(Cl)cc3)CC1)CC=C2c1cccc(C(F)(F)F)c1 (stereo not shown) [Example 10, 1-[[4-[(4-Chlorophenyl)phenylmethyl]-1-piperazinyl]acetyl]-1,2-dihydro-4-[3-(trifluoromethyl)phenyl]imidazo[1,5-a]pyrimidine-8-carbonitrile]	137 mm Hg		
N#Cc1ncn2c1N(C(=O)CN1CCN(Cc3ccc(Cl)cc3)CC1)CC=C2c1cccc(C(F)(F)F)c1 [Example 11, 1-[[4-[(4-Chlorophenyl)methyl]-1-piperazinyl]acetyl]-1,2-dihydro-4-[3-(trifluoromethyl)phenyl]imidazo[1,5-a]pyrimidine-8-carbonitrile]		93%	
N#Cc1ncn2c1N(C(=O)CN1CCN(c3ccc(Cl)cc3)CC1)CC=C2c1cccc(C(F)(F)F)c1 [Example 13, 1-[[4-(4-Chlorophenyl)-1-piperazinyl]acetyl]-1,2-dihydro-4-[3-(trifluoromethyl)phenyl]imidazo[1,5-a]pyrimidine-8-carbonitrile]	137 mm Hg		
C#CCN1CCN(CC(=O)N2CC=C(c3cccc(C(F)(F)F)c3)n3cnc(C#N)c32)CC1.Cl.Cl [Example 14, 1,2-Dihydro-1-[[4-(2-propynyl)-1-piperazinyl]acetyl]-4-[3-(trifluoromethyl)phenyl]imidazo[1,5-a]pyrimidine-8-carbonitrile, dihydrochloride]	129 mm Hg		
N#Cc1ncn2c1N(C(=O)CCN1CCN(c3ccc(F)cc3)CC1)CC=C2c1cccc(C(F)(F)F)c1 [Example 16, 1-[3-[4-(4-Fluorophenyl)-1-piperazinyl]-1-oxopropyl]-1,2-dihydro-4-[3-(trifluoromethyl)phenyl]imidazo[1,5-a]pyrimidine-8-carbonitrile]	110 mm Hg	78%	
N#Cc1ncn2c1N(C(=O)CCN1CCN(c3ccccc3)CC1)CC=C2c1cccc(C(F)(F)F)c1 [Example 17, 1,2-Dihydro-1-[1-oxo-3-(4-phenyl-1-piperazinyl]propyl]-4-[3-(trifluoromethyl)phenyl]imidazo[1,5-a]pyrimidine-8-carbonitrile]	115 mm Hg		
N#Cc1ncn2c1N(C(=O)CCN1CCN(c3ccc(Cl)cc3)CC1)CC=C2c1cccc(C(F)(F)F)c1 [Example 18, 1-[3-[4-(4-Chlorophenyl)-1-piperazinyl]-1-oxopropyl]-1,2-dihydro-4-[3-(trifluoromethyl)phenyl]imidazo[1,5-a]pyrimidine-8-carbonitrile]	118 mm Hg	53%	
CCOC(=O)N1CCN(CCC(=O)N2CC=C(c3cccc(C(F)(F)F)c3)n3cnc(C#N)c32)CC1.Cl [Example 19, 4-[3-[8-Cyano-4-[3-(trifluoromethyl)phenyl]imidazo[1,5-a]pyrimidine-1(2H)-yl]-3-oxopropyl]-1-piperazinecarboxylic acid, ethyl ester monohydrochloride]	134 mm Hg		
N#Cc1ncn2c1N(C(=O)CCN1CCN(Cc3ccc(Cl)cc3)CC1)CC=C2c1cccc(C(F)(F)F)c1 [Example 20, 1-[3-[4-[(4-Chlorophenyl)methyl]-1-piperazinyl]-1-oxopropyl]-1,2-dihydro-4-[3-(trifluoromethyl)phenyl]imidazo[1,5-a]pyrimidine-8-carbonitrile]	128 mm Hg	75%	
N#Cc1ncn2c1N(C(=O)CCN1CCN(CCCOc3ccccc3)CC1)CC=C2c1cccc(C(F)(F)F)c1 [Example 21, 1,2-Dihydro-1-[1-oxo-3-[4-(3-phenoxypropyl)-1-piperazinyl]propyl]-4-[3-(trifluoromethyl)phenyl]imidazo[1,5-a]pyrimidine-8-carbonitrile]		66%	
N#Cc1ncn2c1N(C(=O)CCN1CCN(Cc3ccccc3)CC1)CC=C2c1cccc(C(F)(F)F)c1 [Example 22, 1,2-Dihydro-1-[1-oxo-3-[(4-phenylmethyl)-1-piperazinyl]propyl]-4-[3-(trifluoromethyl)phenyl]imidazo[1,5-a]pyrimidine-8-carbonitrile]		61%	
N#Cc1ncn2c1N(C(=O)CCN1CCN(Cc3c(Cl)cccc3Cl)CC1)CC=C2c1cccc(C(F)(F)F)c1 [Example 23, 1-[4-[4-[(2,6-Dichlorophenyl)methyl]-1-piperazinyl]-1-oxopropyl]-1,2-dihydro-4-[3-(trifluoromethyl)phenyl]imidazo[1,5-a]pyrimidine-8-carbonitrile]		98%	
CC(C)N1CCN(CCC(=O)N2CC=C(c3cccc(C(F)(F)F)c3)n3cnc(C#N)c32)CC1 [Example 24, 1,2-Dihydro-1-[3-[4-(1-methylethyl)-1-piperazinyl]-1-oxopropyl]-4-[3-(trifluoromethyl)phenyl]imidazo[1,5-a]pyrimidine-8-carbonitrile]			MABP/mm Hg (mean arterial blood pressure) ([1]; 50 mg/kg by gavage): 133 mm Hg
N#Cc1ncn2c1N(C(=O)CN1CCC(c3ccccc3)CC1)CC=C2c1cccc(C(F)(F)F)c1 [Example 25, 1,2-Dihydro-1-[(4-phenyl-1-piperidinyl)acetyl]-4-[3-(trifluoromethyl)phenyl]imidazo[1,5-a]pyrimidine-8-carbonitrile]	137 mm Hg		
